The source of these data is patent US20180186753A1 (published 2018).

SMILES strings stand for the structures. Several values for one entry are separate records, joined by “and”; a condition that tells them apart may be missing. Identical values can stand only once.

In turn, `CC(=O)SCCC(=O)Nc1c[nH]nc1Cl` displayed a melting point of 140 to 143 °C. As for `CCN(C(=O)CCSC(C)=O)c1c[nH]nc1Cl`, the melting point was 98 to 99 °C. In the case of `CC(=O)SCCC(=O)Nc1cn(-c2cccnc2)nc1Cl`, the melting point was 163 to 166 °C and 168 to 171 °C. With `CCN(C(=O)CCS)c1cn(-c2cccnc2)nc1Cl`, the melting point fell in the range of 70 to 73 °C. Consider `C=CC(=O)Nc1c[nH]nc1Cl`, for which the melting point was 182 °C (dec.). Consider `C=CC(=O)N(CC)c1c[nH]nc1Cl`, for which the melting point lay within 156 to 160 °C.

In the case of `C=CC(=O)Nc1cn(-c2cccnc2)nc1Cl`, the melting point was 148 to 153 °C.

Broadly, the melting point is the temperature of the solid-liquid transition.
